Reference: patent US20240368150A1 (Hoffmann-La Roche Inc., priority 2021, published 2024)
Like-named read-outs stand apart in the source and are kept apart here.

How the values were obtained:
primary human T-cells [1] = assay: Proliferation assay after 5 days (CellTiter-Glo, CD3 stimulation; PBS counter screen); type: cell-based; settings: Homo sapiens, T-cell, 120 h, CD3 stimulation; for Emax: 5 days, normalized to reference compound A1 as stimulator control = 100%, DMSO neutral control, read-out: Emax proliferation (% activation); for EC50: primary human T-cells, CellTiter-Glo after 5 days, EC50 of fitted sigmoidal curve, read-out: Tcell Proliferation CD3 EC50
How it was run: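 Luminescent ATP detection (CellTiter-Glo 2.0) quantified cell number 5 days after compounds went onto medium-only plates. Wells showing visible toxicity or precipitate were noted beforehand, and compounds that stimulated unstimulated cells or lowered viability were flagged.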

primary human T-cells [2] = tested on: primary human T-cells

SMILES	Emax (primary human T-cells [1]) [%]	EC50 (primary human T-cells [1]) [nM]	EC50 (primary human T-cells [2]) [nM]
CC(C)(C)c1nnc(-c2cc3c(cc2F)S(=O)(=O)C[C@H](N)C(=O)N3Cc2ccccc2Cl)o1 [Example 227, (3R)-3-amino-7-(5-tert-butyl-1,3,4-oxadiazol-2-yl)-5-[(2-chlorophenyl)methyl]-8-fluoro-1,1-dioxo-2,3-dihydro-1λ^6,5-benzothiazepin-4-one]	39	> 20000	> 20000
COc1ccc(CN2C(=O)[C@@H](N)CS(=O)(=O)c3cc(F)c(-c4nnc(C(C)(C)C)o4)cc32)nc1 [Example 228, (3R)-3-amino-7-(5-tert-butyl-1,3,4-oxadiazol-2-yl)-8-fluoro-5-[(5-methoxy-2-pyridyl)methyl]-1,1-dioxo-2,3-dihydro-1λ^6,5-benzothiazepin-4-one]	112	1740	5200
CC(C)(C)c1nnc(-c2cc3c(cc2F)S(=O)(=O)C[C@H](N)C(=O)N3Cc2ccc(S(C)(=O)=O)cc2)o1 [Example 229, (3R)-3-amino-7-(5-tert-butyl-1,3,4-oxadiazol-2-yl)-8-fluoro-5-[(4-methylsulfonylphenyl)methyl]-1,1-dioxo-2,3-dihydro-1λ^6,5-benzothiazepin-4-one]	116	1680	2440
COc1ccc(CN2C(=O)[C@@H](N)CS(=O)(=O)c3cc(F)c(-c4nnc(C(C)(C)C)o4)cc32)cc1 [Example 230]	119	89.3	105
CC(C)(C)c1nnc(-c2cc3c(cc2F)S(=O)(=O)C[C@H](N)C(=O)N3Cc2ccc(F)cc2)o1 [Example 231, (3R)-3-amino-7-(5-tert-butyl-1,3,4-oxadiazol-2-yl)-8-fluoro-5-[(4-fluorophenyl)methyl]-1,1-dioxo-2,3-dihydro-1\6,5-benzothiazepin-4-one]	114	257	295
CC(C)(C)c1nnc(-c2cc3c(cc2F)S(=O)(=O)C[C@H](N)C(=O)N3Cc2ccc(Oc3ccccc3)cc2)o1 [Example 233]	127	86.6	95
CC(C)(C)c1nnc(-c2cc3c(cc2F)S(=O)(=O)C[C@H](N)C(=O)N3Cc2ccc(OCCO)cc2)o1 [Example 234, (3R)-3-amino-7-(5-tert-butyl-1,3,4-oxadiazol-2-yl)-8-fluoro-5-[[4-(2-hydroxyethoxy)phenyl]methyl]-1,1-dioxo-2,3-dihydro-1λ^6,5-benzothiazepin-4-one]	130	1200	5340
CC(=O)NCCCCCCCCCCCOc1ccc(CN2C(=O)[C@@H](N)CS(=O)(=O)c3cc(F)c(-c4nnc(C(C)(C)C)o4)cc32)cc1 [Example 235, N-[11-[4-[[(3R)-3-amino-7-(5-tert-butyl-1,3,4-oxadiazol-2-yl)-8-fluoro-1,1,4-trioxo-2,3-dihydro-1λ^6,5-benzothiazepin-5-yl]methyl]phenoxy]undecyl]acetamide]	108	46.6	170
CC(C)(C)c1nnc(-c2cc3c(cc2F)S(=O)(=O)C[C@H](N)C(=O)N3Cc2ccc(OCC(N)=O)cc2)o1 [Example 236, 2-[4-[[(3R)-3-amino-7-(5-tert-butyl-1,3,4-oxadiazol-2-yl)-8-fluoro-1,1,4-trioxo-2,3-dihydro-1λ^6,5-benzothiazepin-5-yl]methyl]phenoxy]acetamide]	98	3240	3230
CC(C)(C)c1nnc(-c2cc3c(cc2F)S(=O)(=O)C[C@H](N)C(=O)N3Cc2cnc(C3CC3)nc2)o1 [Example 238, (3R)-3-amino-7-(5-tert-butyl-1,3,4-oxadiazol-2-yl)-5-[(2-cyclopropylpyrimidin-5-yl)methyl]-8-fluoro-1,1-dioxo-2,3-dihydro-1λ^6,5-benzothiazepin-4-one]	102	3070	769
CC(C)(C)c1nnc(-c2cc3c(cc2F)S(=O)(=O)C[C@H](N)C(=O)N3Cc2ccc(C3(O)COC3)cc2)o1 [Example 239, (3R)-3-amino-7-(5-tert-butyl-1,3,4-oxadiazol-2-yl)-8-fluoro-5-[[4-(3-hydroxyoxetan-3-yl)phenyl]methyl]-1,1-dioxo-2,3-dihydro-1λ^6,5-benzothiazepin-4-one]	69	5100	5580
CC(C)(C)c1nnc(-c2cc3c(cc2F)S(=O)(=O)C[C@H](N)C(=O)N3Cc2ccc(S(C)(=O)=O)cc2F)o1 [Example 240, (3R)-3-amino-7-(5-tert-butyl-1,3,4-oxadiazol-2-yl)-8-fluoro-5-[(2-fluoro-4-methylsulfonyl-phenyl)methyl]-1,1-dioxo-2,3-dihydro-1λ^6,5-benzothiazepin-4-one]	74	5550	6390
CCc1coc(CN2C(=O)[C@@H](N)CS(=O)(=O)c3cc(F)c(-c4nnc(C(C)(C)C)o4)cc32)n1 [Example 241, (3R)-3-amino-7-(5-tert-butyl-1,3,4-oxadiazol-2-yl)-5-[(4-ethyloxazol-2-yl)methyl]-8-fluoro-1,1-dioxo-2,3-dihydro-1λ^6,5-benzothiazepin-4-one]	73	2940	> 10000
CC(C)(C)c1nnc(-c2cc3c(cc2F)S(=O)(=O)C[C@H](N)C(=O)N3Cc2ccc(S(C)(=O)=O)c(F)c2)o1 [Example 242, (3R)-3-amino-7-(5-tert-butyl-1,3,4-oxadiazol-2-yl)-8-fluoro-5-[(3-fluoro-4-methylsulfonyl-phenyl)methyl]-1,1-dioxo-2,3-dihydro-1λ^6,5-benzothiazepin-4-one]	92	3400	4800
CC(C)(C)c1nnc(-c2cc3c(cc2F)S(=O)(=O)C[C@H](N)C(=O)N3Cc2ccc(OCC(F)(F)F)cc2)o1 [Example 243, (3R)-3-amino-7-(5-tert-butyl-1,3,4-oxadiazol-2-yl)-8-fluoro-1,1-dioxo-5-[[4-(2,2,2-trifluoroethoxy)phenyl]methyl]-2,3-dihydro-1λ^6,5-benzothiazepin-4-one]	129	246	918
CC(C)(C)c1nnc(-c2cc3c(cc2F)S(=O)(=O)C[C@H](N)C(=O)N3Cc2ccc(Cl)c(F)c2)o1 [Example 245, (3R)-3-amino-7-(5-tert-butyl-1,3,4-oxadiazol-2-yl)-5-[(4-chloro-3-fluoro-phenyl)methyl]-8-fluoro-1,1-dioxo-2,3-dihydro-1λ^6,5-benzothiazepin-4-one]	127	102	92.1
CC(C)(C)c1nnc(-c2cc3c(cc2F)S(=O)(=O)C[C@H](N)C(=O)N3Cc2ccc(F)c(F)c2)o1 [Example 246, (3R)-3-amino-7-(5-tert-butyl-1,3,4-oxadiazol-2-yl)-5-[(3,4-difluorophenyl)methyl]-8-fluoro-1,1-dioxo-2,3-dihydro-1λ^6,5-benzothiazepin-4-one]	110	442	342
CC(C)Oc1ccc(CN2C(=O)[C@@H](N)CS(=O)(=O)c3cc(F)c(-c4nnc(C(C)(C)C)o4)cc32)nc1 [Example 247, (3R)-3-amino-7-(5-tert-butyl-1,3,4-oxadiazol-2-yl)-8-fluoro-5-[(5-isopropoxy-2-pyridyl)methyl]-1,1-dioxo-2,3-dihydro-1λ^6,5-benzothiazepin-4-one]	79	761	320
CC(C)(C)c1nnc(-c2cc3c(cc2F)S(=O)(=O)C[C@H](N)C(=O)N3Cc2ccc(OC3CCCC3)nc2)o1 [Example 248, (3R)-3-amino-7-(5-tert-butyl-1,3,4-oxadiazol-2-yl)-5-[[6-(cyclopentoxy)-3-pyridyl]methyl]-8-fluoro-1,1-dioxo-2,3-dihydro-1λ^6,5-benzothiazepin-4-one]	157	440	140
CC(C)(C)c1nnc(-c2cc3c(cc2F)S(=O)(=O)C[C@H](N)C(=O)N3Cc2ccc(Cl)nn2)o1 [Example 251, (3R)-3-amino-7-(5-tert-butyl-1,3,4-oxadiazol-2-yl)-5-[(6-chloropyridazin-3-yl)methyl]-8-fluoro-1,1-dioxo-2,3-dihydro-1λ^6,5-benzothiazepin-4-one]	66	5300	> 10000
CC(C)(C)c1nnc(-c2cc3c(cc2F)S(=O)(=O)C[C@H](N)C(=O)N3Cc2cncc(Cc3ccc(Cl)cc3)c2)o1 [Example 252, (3R)-3-amino-7-(5-tert-butyl-1,3,4-oxadiazol-2-yl)-5-[[5-[(4-chlorophenyl)methyl]-3-pyridyl]methyl]-8-fluoro-1,1-dioxo-2,3-dihydro-1λ^6,5-benzothiazepin-4-one]	72	4820	1160
CC(C)(C)c1nnc(-c2cc3c(cc2F)S(=O)(=O)C[C@H](N)C(=O)N3Cc2cnn(CC3CC3)c2)o1 [Example 255, (3R)-3-amino-7-(5-tert-butyl-1,3,4-oxadiazol-2-yl)-5-[[1-(cyclopropylmethyl)pyrazol-4-yl]methyl]-8-fluoro-1,1-dioxo-2,3-dihydro-1λ^6,5-benzothiazepin-4-one]	78	4830	849
CC(C)(C)c1nnc(-c2cc3c(cc2F)S(=O)(=O)C[C@H](N)C(=O)N3Cc2ccc(Cl)cc2CN)o1 [Example 256, (3R)-3-amino-5-[[2-(aminomethyl)-4-chloro-phenyl]methyl]-7-(5-tert-butyl-1,3,4-oxadiazol-2-yl)-8-fluoro-1,1-dioxo-2,3-dihydro-1λ^6,5-benzothiazepin-4-one]	3	> 20000	> 20000
